These results are taken from US8198279B2, “Pyrido[2,3-b]pyrazin-8-substituted compounds and their use” (Institute of Cancer Research: Royal Cancer Hospital (The), priority 2007, dated 2012).

Several values for one entry are separate records, joined by “and”; a condition that tells them apart may be missing. Equal entries are not always repeated.

In this experiment the target is T1, B-RAF (Homo sapiens, UniProt P15056, V600E).
T1 construct: made in house
T1 sequence (P15056 whole entry V600E): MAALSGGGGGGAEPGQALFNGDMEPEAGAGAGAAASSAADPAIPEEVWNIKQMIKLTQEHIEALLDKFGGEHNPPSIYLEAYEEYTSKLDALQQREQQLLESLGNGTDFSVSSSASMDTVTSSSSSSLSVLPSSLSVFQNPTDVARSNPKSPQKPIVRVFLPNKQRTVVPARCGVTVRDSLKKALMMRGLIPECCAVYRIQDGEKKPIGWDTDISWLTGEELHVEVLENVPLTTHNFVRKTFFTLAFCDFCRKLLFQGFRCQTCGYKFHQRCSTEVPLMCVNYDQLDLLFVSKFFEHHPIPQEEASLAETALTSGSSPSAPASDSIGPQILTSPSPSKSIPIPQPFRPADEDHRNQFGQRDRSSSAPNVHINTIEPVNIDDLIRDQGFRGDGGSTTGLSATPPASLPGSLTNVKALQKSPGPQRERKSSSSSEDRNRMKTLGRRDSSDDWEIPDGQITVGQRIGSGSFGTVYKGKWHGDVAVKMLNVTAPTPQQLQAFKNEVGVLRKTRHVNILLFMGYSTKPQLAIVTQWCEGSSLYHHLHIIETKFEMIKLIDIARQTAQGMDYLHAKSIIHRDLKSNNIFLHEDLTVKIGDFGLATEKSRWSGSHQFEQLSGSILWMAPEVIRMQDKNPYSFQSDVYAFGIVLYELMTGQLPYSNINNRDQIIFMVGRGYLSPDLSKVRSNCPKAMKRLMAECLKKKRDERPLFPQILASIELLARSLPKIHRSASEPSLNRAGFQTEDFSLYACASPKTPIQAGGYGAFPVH
Description: DELFIA Kinase Assay. It is filed as biochemical. The conditions noted are these: 100 μM ATP, GST-MEK substrate. How it is done:
Biological Methods—DELFIA Kinase Assay
Compounds were assessed by a kinase assay performed according to the following protocol.
DKB1 (DKB with B-RAF and MEK Protein):
Combine 4950 μL of DKB and 50 μL of 2.5 mg/ml GST-MEK stock (to give […] of MEK per 40 μL). Then add 22.5 μL of B-RAF to give ˜0.2 μL of B-RAF per 40 μL.
100 mM stock, dilute to 500 μM to give 100 μM final concentration in assay.
• 1. Preblock wells with 5% milk in TBS for 1 hour. • 2. Wash wells with 3× with 200 μL TBS. • 3. Plate out 40 μL of DKB1 for all inhibitors (test compounds), DMSO control, and optionally other control compounds. • 4. Plate out 40 μL of DKB2 for BO and EV wells. • 5. Add inhibitors (test compounds) at 0.5 μL per well according to desired plate layout. • 6. Add 0.5 μL DMSO to vehicle control wells. • 7. Add 2 μL of B-RAF to BO and EV wells. • 8. Pre-incubate with inhibitors (test compounds) for 10 minutes at room temperature with shaking. • 9. Add 10 μL of 500 μM ATP stock, in DKB, to give 100 μM assay concentration. • 10. Seal plates with TopSeal and incubate at room temperature with shaking for 45 minutes. • 11. Wash plates 3× with 200 μL 0.1% Tween20/Water to terminate reaction. • 12. Add 50 μL per well of antibody mix and incubate for 1 hour at room temperature with shaking. • 13. Wash plates 3× with 200 μL 0.1% Tween20/Water. • 14. Add 100 μL DELFIA enhancement solution per well, cover in foil, and incubate at room temperature for 30 minutes with shaking. • 15. Read on Victor using Europium protocol.
Values for the blank (Empty Vector) are subtracted from all values. The DMSO controls are set as 100% activity and assay points (the response) are calculated as a percentage of the DMSO control. Data are plotted using Graphpad Prism software and a non-linear regression line is calculated using a variable slope sigmoidal dose-response equation (Y=Bottom+(Top−Bottom)/(1+10^((LogEC50−X)*HillSlope)) where X is the logarithm of concentration. Y is the response). The IC50 generated by this procedure is the concentration of the drug that produces a percentage control fluorescence value midway between the saturation, and zero-effect plateaus. Three independent assays are usually performed and the mean IC50 is reported.
On to `Nc1nc2nccc(Oc3ccc(NC(=O)Nc4cc(C(F)(F)F)ccc4F)c(F)c3)c2[nH]c1=O` [AA-022, 1-(4-(3-amino-2-oxo-1,2-dihydropyrido[2,3-b]pyrazin-8-yloxy)-2-fluorophenyl)-3-(2-fluoro-5-(trifluoromethyl)phenyl)urea], for which the IC50 – broadly, the concentration that inhibits the measured activity by half – was < 1000 nM and 100 to 1000 nM.

Turning to `Cc1nc2nccc(Oc3ccc(NC(=O)Nc4cc(C(C)(C)C)nn4-c4ccccc4)c(F)c3)c2[nH]c1=O` [AA-041, 1-(3-Tert-butyl-1-phenyl-1H-pyrazol-5-yl)-3-(2-fluoro-4-(3-methyl-2-oxo-1,2-dihydropyrido[2,3-b]pyrazin-8-yloxy)phenyl)urea], the IC50 was 100 to 1000 nM.

`O=C(Nc1ccc(Oc2ccnc3[nH]c(=O)cnc23)cc1F)Nc1cc(C(F)(F)F)ccc1F` [AA-026, 1-(2-Fluoro-5-(trifluoromethyl)phenyl)-3-(2-fluoro-4-(3-oxo-3,4-dihydropyrido[2,3-b]pyrazin-8-yloxy)phenyl)urea] had an IC50 of under 100 nM.

`O=C(Nc1ccc(Oc2ccnc3ncc(=O)[nH]c23)cc1)Nc1cc(C(F)(F)F)ccc1F` [AA-043, 1-(2-fluoro-5-(trifluoromethyl)phenyl)-3-(4-(2-oxo-1,2-dihydropyrido[2,3-b]pyrazin-8-yloxy)phenyl)urea] came in with an IC50 of 100 to 1000 nM.

`O=C(Nc1cccc(Oc2ccnc3[nH]c(=O)cnc23)c1)c1cccc(OC(F)(F)F)c1` [AA-002, N-(3-(3-oxo-3,4-dihydropyrido[2,3-b]pyrazin-8-yloxy)phenyl)-3-(trifluoro-methoxy)benzamide] registered an IC50 of under 100 nM.

As for `CC(C)(C)c1cc(NC(=O)Nc2ccc(Oc3ccnc4ncc(=O)[nH]c34)c3ccccc23)n(-c2ccccc2)n1` [AA-034, 1-(3-tert-butyl-1-phenyl-1H-pyrazol-5-yl)-3-(4-(2-oxo-1,2-dihydropyrido[2,3-b]pyrazin-8-yloxy)naphthalen-1-yl)urea], the half-inhibitory concentration (IC50) was < 1000 nM and 100 to 1000 nM.

In turn, `O=C(Nc1ccc(Oc2ccnc3ncc(=O)[nH]c23)cc1F)Nc1cc(C(F)(F)F)ccc1F` [AA-047] registered an IC50 of under 100 nM.

For the compound `Cc1ccc(-n2nc(C(C)(C)C)cc2NC(=O)Nc2ccc(Oc3ccnc4[nH]c(=O)cnc34)cc2)cc1` [AA-016, 1-(3-tert-butyl-1-p-tolyl-1H-pyrazol-5-yl)-3-(4-(3-oxo-3,4-dihydropyrido[2,3-b]pyrazin-8-yloxy)phenyl)urea], the IC50 is < 1000 nM and 100 to 1000 nM and 252 nM.

`Nc1nc2c(Oc3ccc(NC(=O)Nc4cc(C(F)(F)F)ccc4F)c(F)c3)ccnc2[nH]c1=O` [AA-044, 1-(4-(2-amino-3-oxo-3,4-dihydropyrido[2,3-b]pyrazin-8-yloxy)-2-fluorophenyl)-3-(2-fluoro-5-(trifluoromethyl)phenyl)urea]: the IC50 was under 100 nM.

As for `O=C(Nc1cc(C(F)(F)F)ccc1F)Nc1ccc(Oc2ccnc3ncc(=O)[nH]c23)c2ccccc12` [AA-038, 1-(2-fluoro-5-(trifluoromethyl)phenyl)-3-(4-(2-oxo-1,2-dihydropyrido[2,3-b]pyrazin-8-yloxy)naphthalen-1-yl)urea], the IC50 was < 1000 nM and 100 to 1000 nM.

The compound `Cc1nc2c(Oc3ccc(NC(=O)Nc4cc(C(C)(C)C)nn4-c4ccccc4)c4ccccc34)ccnc2[nH]c1=O` [AA-009, 1-(3-tert-butyl-1-phenyl-1H-pyrazol-5-yl)-3-(4-(2-methyl-3-oxo-3,4-dihydropyrido[2,3-b]pyrazin-8-yloxy)naphthalen-1-yl)urea] registered an IC50 of under 100 nM.

Regarding `Cc1nc2c(Oc3cccc(NC(=O)c4cccc(C(C)(C)C)c4)c3)ccnc2[nH]c1=O` [AA-005, 3-tert-butyl-N-(3-(2-methyl-3-oxo-3,4-dihydropyrido[2,3-b]pyrazin-8-yloxy)phenyl)benzamide], the IC50 was under 100 nM.

Consider `O=C(Nc1ccc(Oc2ccnc3ncc(=O)[nH]c23)cc1)Nc1ccc(Cl)c(C(F)(F)F)c1` [AA-042, 1-(4-chloro-3-(trifluoromethyl)phenyl)-3-(4-(2-oxo-1,2-dihydropyrido[2,3-b]pyrazin-8-yloxy)phenyl)urea], for which the half-maximal inhibitory concentration (IC50) is < 1000 nM and 100 to 1000 nM.
